Reference: PubChem BioAssay (NCI)
Several values for one entry are separate records, joined by “and”; a condition that tells them apart may be missing. Identical values can stand only once.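 Each compound was tested at five concentrations against cells in 96-well plates for 48 hours. GI50 is the concentration that inhibits growth by half. TGI: total growth inhibition.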

Legend:
Test in all cases: DTP human tumour cell line panel, 48 h; in the data active means GI50 below about 0.43 µM; inactive means the rest
A549 NSCLC = test system: A549 NSCLC
HL-60(TB) leukemia = test system: HL-60(TB) leukemia
OVCAR-5 ovarian = test system: OVCAR-5 ovarian
NCI/ADR-RES ovarian = test system: NCI/ADR-RES ovarian
K-562 leukemia = test system: K-562 leukemia
HCC-2998 colon = test system: HCC-2998 colon
M14 melanoma = test system: M14 melanoma
NCI-H460 lung = test system: NCI-H460 lung
SN12C renal = test system: SN12C renal
SW-620 colon = test system: SW-620 colon

CCc1c(Cl)c(C)cc(O)c1Cl
47.9 µM: TGI (SW-620 colon)
40.8 µM: TGI (HL-60(TB) leukemia)
> 100 µM: TGI (A549 NSCLC) | TGI (OVCAR-5 ovarian) | TGI (NCI/ADR-RES ovarian) | TGI (K-562 leukemia) | TGI (NCI-H460 lung)
30.9 µM: TGI (SN12C renal)
26.7 µM: TGI (HCC-2998 colon)
92.5 µM: TGI (M14 melanoma)

CC(C(=O)O)c1cccc(Oc2ccccc2)c1 (stereo not given)
> 100 µM: TGI (A549 NSCLC) | TGI (HL-60(TB) leukemia) | TGI (OVCAR-5 ovarian) | TGI (NCI/ADR-RES ovarian) | TGI (K-562 leukemia) | TGI (HCC-2998 colon) | TGI (M14 melanoma) | TGI (NCI-H460 lung) | TGI (SN12C renal) | TGI (SW-620 colon)
inactive: GI50 (A549 NSCLC) > 100 µM | GI50 (HL-60(TB) leukemia) > 100 µM | GI50 (OVCAR-5 ovarian) > 100 µM | GI50 (NCI/ADR-RES ovarian) > 100 µM | GI50 (K-562 leukemia) > 100 µM | GI50 (HCC-2998 colon) > 100 µM | GI50 (M14 melanoma) > 100 µM | GI50 (NCI-H460 lung) > 100 µM | GI50 (SN12C renal) > 100 µM | GI50 (SW-620 colon) > 100 µM

O=[N+]([O-])c1cccc2ccc(N/N=C/c3ccccc3O)nc12
> 100 µM: TGI (A549 NSCLC) | TGI (HL-60(TB) leukemia) | TGI (OVCAR-5 ovarian) | TGI (NCI/ADR-RES ovarian) | TGI (K-562 leukemia) | TGI (HCC-2998 colon) | TGI (M14 melanoma) | TGI (NCI-H460 lung) | TGI (SN12C renal) | TGI (SW-620 colon)
inactive: GI50 (A549 NSCLC) > 100 µM | GI50 (HL-60(TB) leukemia) 1.74 µM | GI50 (OVCAR-5 ovarian) > 100 µM | GI50 (NCI/ADR-RES ovarian) > 100 µM | GI50 (K-562 leukemia) 1.46 µM | GI50 (HCC-2998 colon) > 100 µM | GI50 (M14 melanoma) > 100 µM | GI50 (NCI-H460 lung) > 100 µM | GI50 (SN12C renal) > 100 µM | GI50 (SW-620 colon) 3.88 µM

Cc1ccc(Nc2oc(-c3ccccc3)nc2[P+](c2ccccc2)(c2ccccc2)c2ccccc2)cc1
2.4 µM: TGI (HCC-2998 colon)
3.23 µM: TGI (A549 NSCLC)
2.11 µM: TGI (M14 melanoma)
4.38 µM: TGI (OVCAR-5 ovarian)
active: GI50 (HL-60(TB) leukemia) 0.425 µM | GI50 (K-562 leukemia) 0.324 µM
2.05 µM: TGI (SW-620 colon)
3.1 µM: TGI (NCI/ADR-RES ovarian)
inactive: GI50 (A549 NSCLC) 0.938 µM | GI50 (OVCAR-5 ovarian) 1.63 µM | GI50 (NCI/ADR-RES ovarian) 1.48 µM | GI50 (HCC-2998 colon) 1.03 µM | GI50 (M14 melanoma) 0.728 µM | GI50 (NCI-H460 lung) 0.804 µM | GI50 (SN12C renal) 0.888 µM | GI50 (SW-620 colon) 0.675 µM
2.51 µM: TGI (SN12C renal)
1.44 µM: TGI (K-562 leukemia)
2.2 µM: TGI (NCI-H460 lung)
1.39 µM: TGI (HL-60(TB) leukemia)

COC(=O)c1ccc2c(c1)/C(=C\c1cc(Br)c(O)c(Br)c1)C(=O)N2
14.6 µM: TGI (HL-60(TB) leukemia)
9.23 µM: TGI (M14 melanoma)
> 25 µM: TGI (A549 NSCLC) | TGI (OVCAR-5 ovarian) | TGI (NCI/ADR-RES ovarian) | TGI (K-562 leukemia) | TGI (HCC-2998 colon) | TGI (NCI-H460 lung) | TGI (SN12C renal) | TGI (SW-620 colon)
inactive: GI50 (A549 NSCLC) 8.19 µM | GI50 (HL-60(TB) leukemia) 4.97 µM | GI50 (OVCAR-5 ovarian) 13.5 µM | GI50 (NCI/ADR-RES ovarian) 15.7 µM | GI50 (K-562 leukemia) 8.14 µM | GI50 (HCC-2998 colon) 8.23 µM | GI50 (M14 melanoma) 1.88 µM | GI50 (NCI-H460 lung) 7.57 µM | GI50 (SN12C renal) 10 µM | GI50 (SW-620 colon) 8.4 µM

CCOC(=O)c1c(-c2ccc(OC)cc2)c(C#N)c2c(C#N)c(N)nn2c1N
49 µM: TGI (SN12C renal)
30.9 µM: TGI (NCI-H460 lung)
inactive: GI50 (A549 NSCLC) 5.06 µM | GI50 (HL-60(TB) leukemia) 3.33 µM | GI50 (OVCAR-5 ovarian) 5.65 µM | GI50 (NCI/ADR-RES ovarian) 3.57 µM | GI50 (K-562 leukemia) 1.18 µM | GI50 (HCC-2998 colon) 7.64 µM | GI50 (M14 melanoma) 3.26 µM | GI50 (NCI-H460 lung) 3.67 µM | GI50 (SN12C renal) 4 µM | GI50 (SW-620 colon) 5.62 µM
> 100 µM: TGI (A549 NSCLC) | TGI (HL-60(TB) leukemia) | TGI (OVCAR-5 ovarian) | TGI (NCI/ADR-RES ovarian) | TGI (K-562 leukemia) | TGI (HCC-2998 colon) | TGI (SW-620 colon)
25.9 µM: TGI (M14 melanoma)

CN(C)C/C=C/C(=O)Nc1cc2c(Nc3ccc(F)c(Cl)c3)ncnc2cc1O[C@H]1CCOC1
0.843 µM and 0.345 µM: GI50 (OVCAR-5 ovarian)
2.99 µM and 6.61 µM: TGI (M14 melanoma)
14.1 µM and > 10 µM: TGI (K-562 leukemia)
3.14 µM and > 9.22 µM: TGI (HCC-2998 colon)
4.63 µM and > 7.89 µM: TGI (SW-620 colon)
7.55 µM and > 10 µM: TGI (A549 NSCLC)
14.8 µM and > 10 µM: TGI (NCI/ADR-RES ovarian) | TGI (SN12C renal)
inactive: GI50 (A549 NSCLC) 1.48 µM and 1.6 µM | GI50 (HL-60(TB) leukemia) 1.45 µM and 0.599 µM | GI50 (NCI/ADR-RES ovarian) 2.27 µM and 1.92 µM | GI50 (K-562 leukemia) 3.17 µM and 1.97 µM | GI50 (HCC-2998 colon) 1.14 µM and 1.58 µM | GI50 (M14 melanoma) 1.39 µM and 1.42 µM | GI50 (NCI-H460 lung) 2.87 µM and 3.46 µM | GI50 (SN12C renal) 1.46 µM and 0.576 µM | GI50 (SW-620 colon) 1.38 µM and 1.5 µM
11.7 µM and > 10 µM: TGI (NCI-H460 lung)
5.03 µM and 3.75 µM: TGI (HL-60(TB) leukemia)
13.3 µM and > 10 µM: TGI (OVCAR-5 ovarian)

COc1ccc(-c2nsc3c2NC(=O)CC3c2cccc(OC)c2)cc1 (stereo not given)
> 100 µM: TGI (A549 NSCLC) | TGI (OVCAR-5 ovarian) | TGI (K-562 leukemia) | TGI (HCC-2998 colon) | TGI (M14 melanoma) | TGI (SN12C renal) | TGI (SW-620 colon)
71.8 µM: TGI (NCI-H460 lung)
17.4 µM: TGI (HL-60(TB) leukemia)
active: GI50 (NCI/ADR-RES ovarian) 0.42 µM | GI50 (K-562 leukemia) 0.358 µM | GI50 (SW-620 colon) 0.412 µM
2.27 µM: TGI (NCI/ADR-RES ovarian)
inactive: GI50 (A549 NSCLC) 0.714 µM | GI50 (HL-60(TB) leukemia) 1.35 µM | GI50 (OVCAR-5 ovarian) 3.79 µM | GI50 (HCC-2998 colon) 2.13 µM | GI50 (M14 melanoma) 0.613 µM | GI50 (NCI-H460 lung) 0.534 µM | GI50 (SN12C renal) 3.81 µM
